These results are taken from paper PMC3064895 (Cancer Chemotherapy and Pharmacology, 2010).

Like-named read-outs stand apart in the source and are kept apart here.

The nature of data set [1]: Plasma pharmacokinetics at steady state of sorafenib. In kind it is in vivo, patients with advanced cancer. To be noted: for AUC, geometric mean (% CV): AUC(0–12), n = 14; for AUC, geometric mean (% CV) / AUCnorm, geometric mean (% CV) / C max, geometric mean (% CV) / C max,norm, geometric mean (% CV) / C trough, geometric mean (% CV) / C trough,norm, geometric mean (% CV) / t max, median (range): plasma, sorafenib 400 mg bid; for AUC ratio (90% CI) / C max ratio (90% CI) / C trough ratio (90% CI): ratio of day 1 of cycle 5 versus day 1 of cycle 2.

The conditions of data set [2]: cited from earlier work.
A short description of data set [3]: QT/QTc interval on 12-lead Holter ECG. It counts as in vivo, patients with advanced cancer. To be noted: 2 h post-dose; oral 400-mg single dose, positive control, 1 day before cycle 1.
For data set [4] the following is noted: cited from earlier work; for Patients with declines to <50 LVEF(%): Hutson et al.; for Mean change in LVEF(%): study by Chu et al.

As for `NC(=O)c1cc(Oc2ccc(NC(=O)Nc3ccc(Cl)c(C(F)(F)F)c3)cc2)ccn1` [BAY 43-9007], in data set [1] (Day 1 of cycle 2), the “AUC, geometric mean (% CV)” value is 2.0 (59.1) mg h/L; the “AUCnorm, geometric mean (% CV)” value is given as 0.4 (62.8) kg h/L; the “C max, geometric mean (% CV)” value was 0.2 (73.4) mg/L; the “C max,norm, geometric mean (% CV)” value is on record as 0.1 (75.2) kg/L. In data set [1] (Day 1 of cycle 2), the “C trough, geometric mean (% CV)” value is recorded as 0.2 (82.3) mg/L; the “C trough,norm, geometric mean (% CV)” value was <0.1 (85.0) kg/L; the “t max, median (range)” value is reported as 1.00 (0–12.00) h. Also, in data set [1] (Day 1 of cycle 5), the “AUC, geometric mean (% CV)” value was 1.1 (74.0) mg h/L; the “AUCnorm, geometric mean (% CV)” value was 0.2 (80.9) kg h/L; the “C max, geometric mean (% CV)” value is reported as 0.1 (75.5) mg/L; the “C max,norm, geometric mean (% CV)” value is given as <0.1 (78.2) kg/L. Moreover, in data set [1] (Day 1 of cycle 5), the “C trough, geometric mean (% CV)” value was 0.1 (82.4) mg/L; the “C trough,norm, geometric mean (% CV)” value is listed as <0.1 (84.8) kg/L; the “t max, median (range)” value is listed as 2.00 (0–12.00) h. Further, in data set [1], the “AUC ratio (90% CI)” value is 0.57 (0.41–0.81), the “C max ratio (90% CI)” value is listed as 0.51 (0.38–0.68) and the “C trough ratio (90% CI)” value is on record as 0.52 (0.38–0.70).
Turning to `CNC(=O)c1cc(Oc2ccc(NC(=O)Nc3ccc(Cl)c(C(F)(F)F)c3)cc2)cc[n+]1[O-]` [BAY 67-3472], in data set [1] (Day 1 of cycle 2), the “AUC, geometric mean (% CV)” value was 8.5 (58.3) mg h/L; the “AUCnorm, geometric mean (% CV)” value is listed as 1.4 (59.6) kg h/L; the “C max, geometric mean (% CV)” value is 1.0 (66.8) mg/L; the “C max,norm, geometric mean (% CV)” value was 0.2 (70.2) kg/L. Besides, in data set [1] (Day 1 of cycle 2), the “C trough, geometric mean (% CV)” value is reported as 0.8 (81.1) mg/L; the “C trough,norm, geometric mean (% CV)” value was 0.1 (85.9) kg/L; the “t max, median (range)” value is recorded as 1.00 (0–12.00) h. For the same compound, in data set [1] (Day 1 of cycle 5), the “AUC, geometric mean (% CV)” value is recorded as 5.2 (98.7) mg h/L; the “AUCnorm, geometric mean (% CV)” value is 0.9 (103.2) kg h/L; the “C max, geometric mean (% CV)” value is listed as 0.6 (96.9) mg/L; the “C max,norm, geometric mean (% CV)” value is 0.1 (100.7) kg/L. Further, in data set [1] (Day 1 of cycle 5), the “C trough, geometric mean (% CV)” value was 0.5 (109.4) mg/L; the “C trough,norm, geometric mean (% CV)” value is reported as 0.1 (111.5) kg/L; the “t max, median (range)” value was 2.00 (0–8.12) h. Also, in data set [1], the “AUC ratio (90% CI)” value is on record as 0.61 (0.41–0.92), the “C max ratio (90% CI)” value was 0.58 (0.41–0.82) and the “C trough ratio (90% CI)” value is on record as 0.54 (0.36–0.81).
For the compound `NC(=O)c1cc(Oc2ccc(NC(=O)Nc3ccc(Cl)c(C(F)(F)F)c3)cc2)cc[n+]1[O-]` [BAY 68-7769], in data set [1] (Day 1 of cycle 2), the “AUC, geometric mean (% CV)” value is given as 2.8 (92.3) mg h/L; the “AUCnorm, geometric mean (% CV)” value was 0.5 (91.4) kg h/L; the “C max, geometric mean (% CV)” value is listed as 0.3 (101.6) mg/L; the “C max,norm, geometric mean (% CV)” value is listed as 0.1 (99.6) kg/L. In data set [1] (Day 1 of cycle 2), the “C trough, geometric mean (% CV)” value is listed as 0.3 (114.5) mg/L; the “C trough,norm, geometric mean (% CV)” value is on record as 0.1 (113.5) kg/L; the “t max, median (range)” value is 2.00 (0–12.00) h. Moreover, in data set [1] (Day 1 of cycle 5), the “AUC, geometric mean (% CV)” value is on record as 1.4 (129.3) mg h/L; the “AUCnorm, geometric mean (% CV)” value is 0.3 (128.1) kg h/L; the “C max, geometric mean (% CV)” value is 0.2 (127.2) mg/L; the “C max,norm, geometric mean (% CV)” value is reported as <0.1 (123.6) kg/L. For the same compound, in data set [1] (Day 1 of cycle 5), the “C trough, geometric mean (% CV)” value is listed as 0.1 (127.8) mg/L; the “C trough,norm, geometric mean (% CV)” value was <0.1 (124.7) kg/L; the “t max, median (range)” value is 2.00 (0–8.05) h. In data set [1], the “AUC ratio (90% CI)” value is recorded as 0.50 (0.28–0.89), the “C max ratio (90% CI)” value is 0.47 (0.28–0.80) and the “C trough ratio (90% CI)” value was 0.49 (0.29–0.83).
With `COc1c(N2C[C@@H]3CCCN[C@@H]3C2)c(F)cc2c(=O)c(C(=O)O)cn(C3CC3)c12` [Moxifloxacin], in data set [2], the “Increase in QT/QTc interval” value is 5 to 10 ms. In data set [3], the “Mean (SD) change from baseline in QT” value is listed as 5.7 (24.3) ms, the “Mean (SD) change from baseline in QTcB” value is given as 4.4 (12.9) ms and the “Mean (SD) change from baseline in QTcF” value is 4.9 (13.7) ms.
`CCN(CC)CCNC(=O)c1c(C)[nH]c(/C=C2\C(=O)Nc3ccc(F)cc32)c1C` [sunitinib]: the entries for the “Patients with declines to <50 LVEF(%)” value in data set [4] (after 1 cycle (6 weeks)), in data set [4] (after 1 year) and in data set [4] (after 2 years) were 12%, 10% and 5%, respectively. The “Mean change in LVEF(%)” value in data set [4] (after 2 cycles) is given as −2.2 LVEF(%); in data set [4] (after 4 cycles) it was −5.1 LVEF(%). Moreover, the “Incidence of ≥10 LVEF(%) reduction” value in data set [4] (observational study by Schmidinger et al.) is given as 14%.
